Results taken from patent US20250351832A1, “PHYTOCHEMICALS AS BIOPESTICIDES AND BIOSTIMULANTS” (KAY BEE BIO ORGANICS PVT. LTD., priority 2024, published 2025).
Read-outs that look alike come from different tables or passages of the source.

Key:
Spodoptera litura [1] = conditions: in vivo
Aphid [2] = conditions: in vivo
Spodoptera litura [3] = test: whole plant or invertebrate; conditions: 72 h
[4] = cited from earlier work
Thrips [5] = test: whole plant or invertebrate; conditions: in Gossypium hirsutum, 48 h
Alternaria alternata [6] = test: Alternaria leaf spot/blight on inoculated tomato plants (Ex. 28); assay type: in vivo; conditions: in vivo
chili seedlings = test: Response of chili plants, greenhouse growth (Ex. 31); assay type: in vivo; conditions: chili seedlings, dose 1 ml/gm/lit
Alternaria alternata [7] = test: In vitro poisoned food technique against fungus (Ex. 20); assay type: cell-based
Thrips [8] = conditions: in vivo
tomato seedlings = test: Response of tomato plants, greenhouse growth (Ex. 30); assay type: in vivo; conditions: tomato seedlings, dose 1 ml/gm/lit
Helicoverpa armigera = conditions: in vivo
Spodoptera litura [9] = conditions: in vivo; remark: listed apart in the source
Aphid [10] = test: whole plant or invertebrate; conditions: 48 h
[11] = Table 13, descriptive, no test described
[12] = read-out: % Corrected Mortality at 48 Hrs.
[13] = read-out: % Mortality at 48 Hrs.

COc1cc(CNC(=O)CCCC/C=C/C(C)C)ccc1O [Capsaicin]
Total No. of dead insect at 72 Hrs. (Spodoptera litura [1]): 4.25 | % Corrected Mortality at 48 Hrs. (Aphid [2]): 57.14% | mortality at 1 mL or g/L (Spodoptera litura [3]; read-out: % Corrected Mortality at 72 Hrs.): 39.5% | mortality at 1 mL or g/L (Spodoptera litura [3]; read-out: % Mortality at 72 Hrs.): 42.5% | Acaricidal Activity - Mode of action [4, 11]: Acts as a mite feeding | Antifungal Activity - Mode of action [4, 11]: Inhibits the hyphae | Antioxidant Activity - Mode of action [4, 11]: Showed antioxidant | Bactericidal Activity - Mode of action [4, 11]: Inhibition of bacterial | Insecticidal Activities - Mode of action [4, 11]: Fumigant and larvicidal | Virucidal Activity - Mode of action [4, 11]: Inhibited viral replication | Phytotonic Effect ([4]; Table 13, effect on plants, descriptive): Increase | mortality at 1 mL or g/L (Thrips [5]; [12]): 57.1% | mortality at 1 mL or g/L (Thrips [5]; [13]): 62.5% | % Disease reduction over Control (Alternaria alternata [6]): 51.24% | CCI 5th Day (chili seedlings; 5th day after application): 12.21 | Plant Height (cm) 5th Day (chili seedlings; 5th day after application): 6.30 cm | CCI % Increase over pre on 10th Day (chili seedlings; 10th day): 46.96% | Plant Height % Increase over pre on 10th Day (chili seedlings; 10th day): 43.26% | Root Lenght (cm) 10th Day (chili seedlings; 10th day): 2.99 cm | Stem Girth % Increase over pre on 10th Day (chili seedlings; 10th day): 43.31% | CCI 10th Day (chili seedlings; 10th day after application): 13.52 | Plant Height (cm) 10th Day (chili seedlings; 10th day after application): 6.59 cm | Root Lenght % Increase over control (chili seedlings; 10th day, vs water control): 9.09% | inhibition of growth at 1 mL or g/L (Alternaria alternata [7]; […]): 42.6% | Mean colony Diameter (mm) (Alternaria alternata [7]; poisoned food technique, PDA medium, dose 1 ml/gm/lit., after seven days): 50.50 mm | % Corrected Mortality at 48 Hrs. (Thrips [8]): 55.56% | % Mortality at 48 Hrs. (Thrips [8]): 60.00% | Plant Height 5th Day (tomato seedlings; 5th day after application): 7.11 cm | Stem Girth 5th Day (tomato seedlings; 5th day after application): 1.92 mm | Plant Height 10th Day (tomato seedlings; 10th day after application): 7.86 cm | Stem Girth 10th Day (tomato seedlings; 10th day after application): 2.01 mm | Plant Height % Increase over pre on 10th Day (tomato seedlings; 10th day): 29.28% | Stem Girth % Increase over pre on 10th Day (tomato seedlings; 10th day): 58.60% | CCI 5th Day (tomato seedlings; 5th day after application): 14.66 | CCI % Increase over pre on 10th Day (tomato seedlings; 10th day): 21.99% | Root Length (cm) 10th Day (tomato seedlings; 10th day): 3.95 cm | CCI 10th Day (tomato seedlings; 10th day after application): 15.42 | Root Length % Increase over control (tomato seedlings; 10th day, vs water control): 18.74% | Total No. of dead insect at 72 Hrs. (Helicoverpa armigera): 4.50 | % Corrected Mortality at 72 Hrs. (Spodoptera litura [9]): 44.74% | % Mortality at 72 Hrs. (Spodoptera litura [9]): 47.50% | mortality at 1 mL or g/L (Aphid [10]; [12]): 55.9% | mortality at 1 mL or g/L (Aphid [10]; [13]): 62.5%
